Experimental data taken from PMC10930102 (Journal of Enzyme Inhibition and Medicinal Chemistry, 2024).
Where two headings read alike, the source gives them in different places.

Experiments:
c-Src = biological target: T1, c-Src (Homo sapiens, UniProt P12931); set-up: method as in PMID 22734674; conditions: cited from earlier work
T1 construct: purchased Reaction Biology Corporation

IGF1R = biological target: T2, IGF1R (Homo sapiens, UniProt P08069); set-up: method as in PMID 22734674; conditions: cited from earlier work
T2 construct: purchased Reaction Biology Corporation

HDAC6 = biological target: T3, HDAC6 (Homo sapiens, UniProt Q9UBN7); experiment: HDAC inhibition assay (fluorogenic peptide, Reaction Biology); type: biochemical; conditions: tested once, ten-dose starting at 30 µM
T3 construct: purchased Reaction Biology Corporation; host or cells: baculovirus expression system in SF9 cells
T3 sequence (Q9UBN7 1-1215): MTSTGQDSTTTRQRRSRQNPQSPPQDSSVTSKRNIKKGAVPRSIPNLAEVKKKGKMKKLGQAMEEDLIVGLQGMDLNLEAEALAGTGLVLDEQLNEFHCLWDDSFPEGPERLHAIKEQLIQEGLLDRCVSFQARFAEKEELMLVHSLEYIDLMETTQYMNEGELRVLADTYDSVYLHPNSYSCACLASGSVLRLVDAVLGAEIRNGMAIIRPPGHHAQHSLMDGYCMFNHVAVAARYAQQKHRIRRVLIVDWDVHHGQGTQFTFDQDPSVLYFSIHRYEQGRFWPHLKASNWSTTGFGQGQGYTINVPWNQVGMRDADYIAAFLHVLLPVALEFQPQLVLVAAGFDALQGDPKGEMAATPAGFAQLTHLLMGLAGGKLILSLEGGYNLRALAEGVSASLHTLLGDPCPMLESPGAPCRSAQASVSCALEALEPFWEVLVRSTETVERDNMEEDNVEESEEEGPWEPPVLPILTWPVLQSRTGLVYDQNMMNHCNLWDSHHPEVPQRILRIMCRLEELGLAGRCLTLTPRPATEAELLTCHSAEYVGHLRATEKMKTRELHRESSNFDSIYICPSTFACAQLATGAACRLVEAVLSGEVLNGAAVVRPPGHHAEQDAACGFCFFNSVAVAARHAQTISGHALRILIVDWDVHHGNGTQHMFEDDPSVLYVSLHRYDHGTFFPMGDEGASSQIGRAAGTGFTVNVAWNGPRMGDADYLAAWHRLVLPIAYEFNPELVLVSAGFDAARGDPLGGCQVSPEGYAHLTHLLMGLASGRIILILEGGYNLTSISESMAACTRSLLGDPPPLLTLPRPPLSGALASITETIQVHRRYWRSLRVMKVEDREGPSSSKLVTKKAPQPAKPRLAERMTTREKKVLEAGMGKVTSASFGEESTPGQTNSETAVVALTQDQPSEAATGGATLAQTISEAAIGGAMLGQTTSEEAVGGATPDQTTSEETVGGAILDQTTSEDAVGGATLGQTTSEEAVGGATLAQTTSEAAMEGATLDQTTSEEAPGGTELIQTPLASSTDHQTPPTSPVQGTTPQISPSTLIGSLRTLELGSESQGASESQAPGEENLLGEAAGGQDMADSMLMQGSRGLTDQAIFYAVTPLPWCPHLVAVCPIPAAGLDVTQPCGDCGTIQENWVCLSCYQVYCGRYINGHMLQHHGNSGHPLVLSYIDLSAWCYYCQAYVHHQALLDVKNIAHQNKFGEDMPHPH

HDAC8 = biological target: T4, HDAC8 (Homo sapiens, UniProt Q9BY41); experiment: HDAC inhibition assay (fluorogenic diacylpeptide, Reaction Biology); type: biochemical; conditions: tested once, ten-dose starting at 30 µM
T4 construct: purchased Reaction Biology Corporation; host or cells: baculovirus expression system in SF9 cells
T4 sequence (Q9BY41 1-377): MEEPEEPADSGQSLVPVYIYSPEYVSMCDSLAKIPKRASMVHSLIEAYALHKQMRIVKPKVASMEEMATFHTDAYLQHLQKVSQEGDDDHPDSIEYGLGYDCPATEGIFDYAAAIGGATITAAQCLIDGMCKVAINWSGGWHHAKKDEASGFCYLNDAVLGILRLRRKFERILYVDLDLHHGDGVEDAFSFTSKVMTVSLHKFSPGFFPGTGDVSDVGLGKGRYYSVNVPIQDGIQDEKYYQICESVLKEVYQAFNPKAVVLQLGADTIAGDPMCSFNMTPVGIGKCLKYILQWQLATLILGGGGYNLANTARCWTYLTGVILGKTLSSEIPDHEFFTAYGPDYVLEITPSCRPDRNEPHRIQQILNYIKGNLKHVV

HDAC11 = biological target: T5, HDAC11 (Homo sapiens, UniProt Q96DB2); experiment: HDAC inhibition assay (fluorogenic peptide, Reaction Biology); type: biochemical; conditions: tested once, ten-dose starting at 30 µM
T5 construct: purchased Reaction Biology Corporation; host or cells: baculovirus expression system in SF9 cells
T5 sequence (Q96DB2 1-347): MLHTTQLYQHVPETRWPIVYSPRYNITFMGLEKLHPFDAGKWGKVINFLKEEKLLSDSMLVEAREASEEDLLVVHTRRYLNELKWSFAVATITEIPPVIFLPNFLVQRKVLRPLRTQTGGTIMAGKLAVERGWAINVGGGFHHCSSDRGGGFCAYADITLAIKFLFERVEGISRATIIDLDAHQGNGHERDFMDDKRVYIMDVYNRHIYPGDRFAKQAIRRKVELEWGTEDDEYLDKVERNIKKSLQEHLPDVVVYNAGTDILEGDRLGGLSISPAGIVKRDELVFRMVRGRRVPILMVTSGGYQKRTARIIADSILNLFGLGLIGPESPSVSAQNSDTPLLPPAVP

ALK = biological target: T6, ALK (Homo sapiens, UniProt Q9UM73); experiment: ALK in vitro enzymatic assay (radioisotope P81 filter-binding, Reaction Biology); type: biochemical
T6 construct: purchased Reaction Biology Corporation

HDAC1 = biological target: T7, HDAC1 (Homo sapiens, UniProt Q13547); experiment: HDAC inhibition assay (fluorogenic peptide, Reaction Biology); type: biochemical; conditions: tested once, ten-dose starting at 30 µM
T7 construct: purchased Reaction Biology Corporation; host or cells: baculovirus expression system in SF9 cells

[1] = system: phosphorylation level of Y1604 on ALK; experiment: Western blot of ALK phosphorylation in H2228 cells; type: cell-based, human; conditions: 6 h, 3b 2 µM, 3c 4 µM
Source text: (§1) Figure 4. Effect of test compounds on H2228 cells. […] (A) Western blots of phosphorylated tyrosine residue 1640 on ALK as well as acetylated (Ac) α-tubulin and histone H3 with their corresponding total proteins for normalisation. GAPDH was used as a loading control. (B) Quantification of western blotting results using Image J. Error bars indicate ± S.D.E. *p-Value ≤ 0.05, **p-value ≤ 0.01, ***p-value ≤ 0.001.
(§2) Treated cells were washed three times with ice-cold phosphate-buffered saline and lysed in lysis buffer containing 100 mM Tris-HCl, 12 mM sodium deoxycholate, 12 mM sodium lauroylsarcosinate, and protease inhibitor cocktail (BioTools). Cells were heated in lysis buffer at 95 °C for 5 min and then the cell membrane was broken up by sonication (Bioruptor). Cellular debris and unbroken cells were removed by centrifugation (12,500 × g for 30 min, 4 °C). Protein concentration was determined using the bicinchoninic acid assay (Thermo). Cell extracts (20 μg) were resolved by 12% sodium dodecyl sulfate-polyacrylamide gel electrophoresis (SDS-PAGE), transferred to PVDF membranes, and probed separately with antibodies for Ac-histone H3, Ac-α-tubulin, histone H3, α-tubulin, HDAC1, HDAC6, HDAC8 and GAPDH. The antibodies of GAPDH, HDAC1, and HDAC8 were purchased from ABclonal and all other antibodies were from Cell Signalling Technology. Antibody signals were detected using an enhanced chemiluminescence system.

[2] = system: protein expression level of HDAC1, HDAC6, or HDAC8; experiment: Western blot of HDAC protein expression; type: cell-based, human; conditions: western blot after treatment (supplemental Figure S3)
Description: as §2
Figure S3. Western blots of HDAC1, HDAC6, and HDAC8 after drug treatment and vehicle control
activity was assessed by MTS assay, and the concentration of inhibitors was determined to be half of their
was tested five times, and the results were normalized to 1. (blank) […]

A549 = experiment: SRB antiproliferation assay; type: cell-based; conditions: Homo sapiens, 48 h, read-out: Antiproliferative activity (IC50) A549
H2228 = experiment: SRB antiproliferation assay; type: cell-based; conditions: Homo sapiens, NCI-H2228, 48 h, ALK-addicted cells, read-out: Antiproliferative activity (IC50) H2228
MCF7 = experiment: SRB antiproliferation assay; type: cell-based; conditions: Homo sapiens, 48 h, read-out: Antiproliferative activity (IC50) MCF7
U87MG = experiment: SRB antiproliferation assay; type: cell-based; conditions: Homo sapiens, U-87 MG, 48 h, read-out: Antiproliferative activity (IC50) U87MG
CYP1A2 = biological target: T8, CYP1A2 (Homo sapiens, UniProt P05177); experiment: CYP450 inhibition assay; type: in vitro ADME; conditions: human recombinant enzyme
T8 construct: purchased Reaction Biology Corporation; host or cells: CYP cDNA baculovirus expression systems

CYP2C19 = biological target: T9, CYP2C19 (Homo sapiens, UniProt P33261); experiment: CYP450 inhibition assay; type: in vitro ADME; conditions: human recombinant enzyme
T9 construct: purchased Reaction Biology Corporation; host or cells: CYP cDNA baculovirus expression systems
Description: Assays were performed by Reaction Biology Corporation. […] CYP assays used human recombinant CYP1A2, CYP2C9, CYP2C19, CYP2D6, and CYP3A4 expressed in CYP cDNA baculovirus expression systems. […] Substrates used were 3-cyano-7-ethoxycoumarin for CYP1A2, 2C19, and 2D6; Vivid OOMR Substrate for CYP2C9; and Vivid BOMR Substrate for CYP3A4. hERG inhibition assays involved a binding competition between the tested compounds and a fluorescently labelled compound tracer (Predictor hERG Tracer Red) for membrane-bound hERG (Predictor hERG Membrane). E-4031 served as the positive control.

[3] = system: acetylated histone H3, a substrate of class I HDAC; experiment: Western blot of acetylated histone H3 in H2228 cells; type: cell-based, human; conditions: 6 h, 3b 2 µM
Source text: as §1
as §2, with “The antibodies of GAPDH, HDAC1, and HDAC8 were purchased from ABclonal and all other antibodies were from Cell Signalling Technology.” left out

[4] = 20 μM ATP, ten-dose IC50 mode, duplicate, average

T6 sequence (Q9UM73 19-1620): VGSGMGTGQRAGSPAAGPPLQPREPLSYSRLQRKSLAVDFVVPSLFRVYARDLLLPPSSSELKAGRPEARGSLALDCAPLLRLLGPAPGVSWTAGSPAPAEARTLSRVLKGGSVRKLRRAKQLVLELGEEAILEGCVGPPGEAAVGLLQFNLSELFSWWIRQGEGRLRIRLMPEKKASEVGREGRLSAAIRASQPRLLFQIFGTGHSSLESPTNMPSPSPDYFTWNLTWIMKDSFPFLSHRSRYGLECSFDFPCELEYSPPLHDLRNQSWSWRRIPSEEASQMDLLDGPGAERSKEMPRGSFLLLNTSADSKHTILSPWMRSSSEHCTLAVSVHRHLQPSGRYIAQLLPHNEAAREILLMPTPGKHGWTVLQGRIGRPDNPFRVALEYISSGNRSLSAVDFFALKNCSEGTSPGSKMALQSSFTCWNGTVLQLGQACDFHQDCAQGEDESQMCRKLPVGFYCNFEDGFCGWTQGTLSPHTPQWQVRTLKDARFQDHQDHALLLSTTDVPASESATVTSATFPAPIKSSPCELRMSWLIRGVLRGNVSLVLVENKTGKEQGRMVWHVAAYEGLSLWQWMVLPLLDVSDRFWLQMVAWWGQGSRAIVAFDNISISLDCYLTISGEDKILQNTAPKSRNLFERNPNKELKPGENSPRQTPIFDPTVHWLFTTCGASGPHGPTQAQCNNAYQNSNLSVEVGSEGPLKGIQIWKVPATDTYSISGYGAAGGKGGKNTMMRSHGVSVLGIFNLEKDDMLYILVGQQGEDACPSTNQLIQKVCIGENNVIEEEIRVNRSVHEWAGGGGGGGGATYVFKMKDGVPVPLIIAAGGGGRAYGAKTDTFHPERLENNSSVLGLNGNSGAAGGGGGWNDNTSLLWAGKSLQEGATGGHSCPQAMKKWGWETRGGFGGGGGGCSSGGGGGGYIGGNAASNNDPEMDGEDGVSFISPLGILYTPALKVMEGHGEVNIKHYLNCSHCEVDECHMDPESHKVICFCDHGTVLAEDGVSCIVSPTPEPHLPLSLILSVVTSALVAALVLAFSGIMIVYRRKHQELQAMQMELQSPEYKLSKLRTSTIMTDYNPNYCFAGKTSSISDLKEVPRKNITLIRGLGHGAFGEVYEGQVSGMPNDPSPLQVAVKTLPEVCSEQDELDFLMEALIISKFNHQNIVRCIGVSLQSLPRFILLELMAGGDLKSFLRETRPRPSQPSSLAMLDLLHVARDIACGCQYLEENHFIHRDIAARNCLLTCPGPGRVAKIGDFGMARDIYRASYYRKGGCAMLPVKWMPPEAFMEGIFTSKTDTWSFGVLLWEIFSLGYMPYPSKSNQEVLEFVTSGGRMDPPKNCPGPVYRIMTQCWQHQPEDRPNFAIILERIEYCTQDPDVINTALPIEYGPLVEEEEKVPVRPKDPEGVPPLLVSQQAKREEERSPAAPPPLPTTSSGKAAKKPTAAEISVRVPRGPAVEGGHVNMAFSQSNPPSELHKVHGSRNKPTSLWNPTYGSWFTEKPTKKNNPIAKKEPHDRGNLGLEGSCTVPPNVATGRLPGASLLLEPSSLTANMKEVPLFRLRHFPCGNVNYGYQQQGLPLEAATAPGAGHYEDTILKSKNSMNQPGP
T7 sequence (Q13547 whole entry): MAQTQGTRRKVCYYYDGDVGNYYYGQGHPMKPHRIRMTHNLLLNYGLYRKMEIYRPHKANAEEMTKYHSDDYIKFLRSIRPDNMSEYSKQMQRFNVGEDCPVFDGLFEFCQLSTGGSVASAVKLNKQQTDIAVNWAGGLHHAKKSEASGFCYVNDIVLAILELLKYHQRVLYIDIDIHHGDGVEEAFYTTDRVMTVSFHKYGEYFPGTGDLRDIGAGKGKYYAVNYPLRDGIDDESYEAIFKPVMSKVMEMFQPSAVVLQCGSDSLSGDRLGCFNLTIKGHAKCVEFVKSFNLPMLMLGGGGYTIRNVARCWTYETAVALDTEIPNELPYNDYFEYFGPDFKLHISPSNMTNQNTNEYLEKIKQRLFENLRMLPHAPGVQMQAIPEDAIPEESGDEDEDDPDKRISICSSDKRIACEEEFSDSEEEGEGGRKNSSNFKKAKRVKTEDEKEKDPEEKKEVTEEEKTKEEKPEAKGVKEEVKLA
T8 sequence (P05177 whole entry): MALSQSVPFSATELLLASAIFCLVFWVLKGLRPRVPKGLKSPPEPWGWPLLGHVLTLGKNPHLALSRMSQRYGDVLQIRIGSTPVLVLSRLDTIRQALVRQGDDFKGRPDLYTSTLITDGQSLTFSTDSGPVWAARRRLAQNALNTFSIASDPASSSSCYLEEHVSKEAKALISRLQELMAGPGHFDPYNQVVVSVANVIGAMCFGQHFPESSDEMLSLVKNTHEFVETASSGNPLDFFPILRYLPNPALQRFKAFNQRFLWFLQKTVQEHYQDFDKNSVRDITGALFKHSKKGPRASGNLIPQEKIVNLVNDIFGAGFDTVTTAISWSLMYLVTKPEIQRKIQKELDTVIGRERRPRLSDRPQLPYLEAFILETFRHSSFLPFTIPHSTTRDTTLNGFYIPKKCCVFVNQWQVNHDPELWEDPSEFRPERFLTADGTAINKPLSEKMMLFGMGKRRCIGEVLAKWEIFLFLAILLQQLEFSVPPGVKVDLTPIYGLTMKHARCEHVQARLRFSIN
T2 sequence (P08069 31-1367): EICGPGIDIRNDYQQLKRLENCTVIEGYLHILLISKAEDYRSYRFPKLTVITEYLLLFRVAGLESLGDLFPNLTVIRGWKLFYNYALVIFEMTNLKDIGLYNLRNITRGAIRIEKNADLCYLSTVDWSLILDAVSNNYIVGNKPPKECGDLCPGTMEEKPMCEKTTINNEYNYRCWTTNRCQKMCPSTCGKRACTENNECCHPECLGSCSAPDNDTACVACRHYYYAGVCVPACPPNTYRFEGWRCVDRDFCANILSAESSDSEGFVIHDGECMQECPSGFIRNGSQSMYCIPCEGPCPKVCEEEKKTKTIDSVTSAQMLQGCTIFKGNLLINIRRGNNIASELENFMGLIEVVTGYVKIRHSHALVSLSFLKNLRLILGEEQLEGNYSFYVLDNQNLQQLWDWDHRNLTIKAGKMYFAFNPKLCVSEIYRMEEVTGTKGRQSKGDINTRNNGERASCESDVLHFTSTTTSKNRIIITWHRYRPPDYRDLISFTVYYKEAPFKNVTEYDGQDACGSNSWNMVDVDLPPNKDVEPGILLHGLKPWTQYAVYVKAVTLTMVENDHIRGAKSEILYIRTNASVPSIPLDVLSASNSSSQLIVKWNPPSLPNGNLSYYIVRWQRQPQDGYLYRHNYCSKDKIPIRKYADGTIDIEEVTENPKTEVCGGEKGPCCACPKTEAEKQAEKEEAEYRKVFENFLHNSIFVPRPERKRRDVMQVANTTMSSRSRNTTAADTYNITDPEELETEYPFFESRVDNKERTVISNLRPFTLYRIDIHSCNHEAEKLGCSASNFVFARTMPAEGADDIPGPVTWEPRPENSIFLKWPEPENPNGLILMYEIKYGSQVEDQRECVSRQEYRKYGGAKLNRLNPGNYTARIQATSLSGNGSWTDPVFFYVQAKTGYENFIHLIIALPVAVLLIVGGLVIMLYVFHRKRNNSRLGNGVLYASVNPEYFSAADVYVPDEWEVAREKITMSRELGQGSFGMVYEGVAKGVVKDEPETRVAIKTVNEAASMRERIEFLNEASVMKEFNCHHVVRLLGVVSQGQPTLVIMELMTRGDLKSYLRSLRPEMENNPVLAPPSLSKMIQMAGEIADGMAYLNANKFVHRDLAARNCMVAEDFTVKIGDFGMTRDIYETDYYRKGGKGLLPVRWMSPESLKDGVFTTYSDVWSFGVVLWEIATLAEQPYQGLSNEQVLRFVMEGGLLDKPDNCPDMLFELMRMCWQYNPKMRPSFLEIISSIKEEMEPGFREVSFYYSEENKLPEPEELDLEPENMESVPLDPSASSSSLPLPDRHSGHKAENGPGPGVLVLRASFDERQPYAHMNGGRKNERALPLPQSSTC
T9 sequence (P33261 whole entry): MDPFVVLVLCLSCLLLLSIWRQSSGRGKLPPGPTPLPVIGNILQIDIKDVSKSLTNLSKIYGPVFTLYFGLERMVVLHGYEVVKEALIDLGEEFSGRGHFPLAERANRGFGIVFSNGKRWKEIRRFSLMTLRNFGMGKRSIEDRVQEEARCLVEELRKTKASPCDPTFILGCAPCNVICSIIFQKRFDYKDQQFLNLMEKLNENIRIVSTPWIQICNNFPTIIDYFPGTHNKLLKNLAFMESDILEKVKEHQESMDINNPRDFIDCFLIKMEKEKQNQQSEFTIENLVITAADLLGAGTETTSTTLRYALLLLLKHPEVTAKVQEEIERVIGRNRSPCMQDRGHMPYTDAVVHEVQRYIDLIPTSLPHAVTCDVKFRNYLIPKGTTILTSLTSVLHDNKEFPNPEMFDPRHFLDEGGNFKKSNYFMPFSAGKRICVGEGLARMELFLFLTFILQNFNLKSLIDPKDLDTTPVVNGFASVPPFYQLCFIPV
T1 sequence (P12931 whole entry): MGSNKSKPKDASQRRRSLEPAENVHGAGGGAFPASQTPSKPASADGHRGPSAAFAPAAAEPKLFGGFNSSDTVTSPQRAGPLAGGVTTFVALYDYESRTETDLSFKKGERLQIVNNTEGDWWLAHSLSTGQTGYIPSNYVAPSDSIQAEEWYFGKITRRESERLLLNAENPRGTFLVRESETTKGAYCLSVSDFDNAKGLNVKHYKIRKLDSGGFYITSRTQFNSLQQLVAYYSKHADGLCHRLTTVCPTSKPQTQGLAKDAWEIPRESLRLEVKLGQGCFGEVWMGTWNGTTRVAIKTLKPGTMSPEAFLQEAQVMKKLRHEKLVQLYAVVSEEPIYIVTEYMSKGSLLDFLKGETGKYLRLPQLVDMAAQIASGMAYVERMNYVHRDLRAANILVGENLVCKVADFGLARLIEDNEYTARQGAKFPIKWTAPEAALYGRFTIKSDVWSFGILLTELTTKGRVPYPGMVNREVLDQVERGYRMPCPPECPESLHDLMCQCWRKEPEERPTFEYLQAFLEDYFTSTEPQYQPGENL

Structure (SMILES) | IC50 (HDAC6) [µM] | IC50 (HDAC8) [µM] | IC50 (HDAC11) [µM] | IC50 (ALK; [4]) [µM] | IC50 (HDAC1) [µM] | IC50 (H2228) [µM] | also measured
CC(C)NC(=O)[C@H]1CC[C@@H](n2/c(=N/C(=O)c3cc(F)cc(F)c3)[nH]c3ccc(CN4CCC(C(C)(C)O)CC4)cc32)CC1 [Compound 1] |  |  |  |  |  |  | IC50 (c-Src): 0.42 µM; IC50 (IGF1R): 0.1 µM
CC(C)NC(=O)CCCn1/c(=N/C(=O)c2ccccc2)[nH]c2cc(Br)ccc21 [Compound 6, (E)-N-(5-Bromo-1–(4-(isopropylamino)-4-oxobutyl)-1H-benzo[d]imidazol-2(3H)-ylidene)benzamide] |  |  |  |  |  |  | inhibition at 10 µM (ALK; single dose at 10 μM, duplicate, average, read-out: ALK relative inhibition of enzymatic activity): 18.8%
C[C@@H](Oc1cc(-c2cnn(C3CCNCC3)c2)cnc1N)c1c(Cl)ccc(F)c1Cl [Crizotinib, reference compound] |  |  |  |  |  | 0.13 ± 0.05 | IC50 (MCF7): 0.095 ± 0.024 µM; IC50 (U87MG): 0.048 ± 0.008 µM
CC(=O)N1CCN(c2ccc(OCC3COC(Cn4ccnc4)(c4ccc(Cl)cc4Cl)O3)cc2)CC1 (centres unmarked) [Ketoconazole, reference compound] |  |  |  |  |  |  | IC50 (CYP1A2): 0.59 µM; IC50 (CYP2C19): 1.3 µM
CCCCc1nc2cc(/C=C/C(=O)NO)ccc2n1CCN(CC)CC [Pracinostat (2), Pracinostat, reference compound] |  |  |  |  |  | 0.69 ± 0.05 | phosphorylation level of Y1604 on ALK [1]: enhanced the ALK kinase activity; acetylated histone H3 level [3]: highest level of acetylated histone

Second part, led by results:

IC50 (HDAC6) [µM] | IC50 (HDAC8) [µM] | IC50 (HDAC11) [µM] | IC50 (ALK; [4]) [µM] | IC50 (HDAC1) [µM] | IC50 (H2228) [µM] | Structure (SMILES) | also measured
0.81 | 2.95 | 9.35 | 5.75 | 6.18 |  | CC(C)NC(=O)CCCn1/c(=N/C(=O)c2ccccc2)[nH]c2cc(/C=C/C(=O)NO)ccc21 [Compound 3a, (E)-N-(5-((E)-3-(Hydroxyamino)-3-oxoprop-1-en-1-yl)-1–(4-(isopropylamino)-4-oxobutyl)-1H-benzo[d]imidazol-2(3H)-ylidene)benzamide] | 
2.34 | 2.87 | > 30 | 0.0052 | > 30 | 0.21 ± 0.07 | CC(C)NC(=O)[C@H]1CC[C@@H](n2/c(=N/C(=O)c3ccccc3)[nH]c3ccc(/C=C/C(=O)NO)cc32)CC1 [Compound 3c, (E)-N-(6-((E)-3-(Hydroxyamino)-3-oxoprop-1-en-1-yl)-1-((1S,4S)-4-(isopropylcarbamoyl)cyclohexyl)-1H-benzo[d]imidazol-2(3H)-ylidene)benzamide] | phosphorylation level of Y1604 on ALK [1]: significantly decreased; protein expression level of HDAC1, HDAC6, or HDAC8 [2]: not perturbed; IC50 (A549): 7.26 ± 2.66 µM; IC50 (ALK): 0.015 µM; fold greater ALK inhibition ability (ALK; hydroxamate moved from C-5 to C-6 position (versus 3b)): 3 fold; IC50 (MCF7): 0.98 ± 0.03 µM; IC50 (U87MG): 11.1 ± 0.81 µM
2.47 | 7.77 | > 30 | 3.73 | > 30 |  | CC(C)NC(=O)CCCn1/c(=N/C(=O)c2cc(F)cc(F)c2)[nH]c2cc(/C=C/C(=O)NO)ccc21 [Compound 3d, (E)-3,5-Difluoro-N-(5-((E)-3-(hydroxyamino)-3-oxoprop-1-en-1-yl)-1–(4-(isopropylamino)-4-oxobutyl)-1H-benzo[d]imidazol-2(3H)-ylidene)benzamide] | 
0.21 | 1.78 | 1.42 | > 10 | 0.84 |  | CCCC(=O)/N=c1\[nH]c2cc(/C=C/C(=O)NO)ccc2n1CCCC(=O)NC(C)C [Compound 3e, 4-((E)-2-(butyrylimino)-5-((E)-3-(hydroxyamino)-3-oxoprop-1-en-1-yl)-2,3-dihydro-1H-benzo[d]imidazol-1-yl)-N-isopropylbutanamide] | 
0.1 | 2.52 | 1.72 | 0.015 | 2.29 |  | CC(C)NC(=O)[C@H]1CC[C@@H](n2/c(=N/C(=O)c3ccccc3)[nH]c3cc(NC(=O)CCCCCCC(=O)NO)ccc32)CC1 [Compound 3f] | 
